This is an account of results in patent US8173645B2 (Takeda San Diego, Inc., priority 2007, dated 2012).

The target of the test is T1, glucokinase (GK), residues 12-465 of the human enzyme (Homo sapiens, UniProt P35557).
T1 construct: I.D. No. 1 corresponds to residues 12-465 of glucokinase; made in house; host or cells: E. coli DH10b-Tlr
T1 sequence (P35557 with tags, fused parts or gaps isoform P35557-2): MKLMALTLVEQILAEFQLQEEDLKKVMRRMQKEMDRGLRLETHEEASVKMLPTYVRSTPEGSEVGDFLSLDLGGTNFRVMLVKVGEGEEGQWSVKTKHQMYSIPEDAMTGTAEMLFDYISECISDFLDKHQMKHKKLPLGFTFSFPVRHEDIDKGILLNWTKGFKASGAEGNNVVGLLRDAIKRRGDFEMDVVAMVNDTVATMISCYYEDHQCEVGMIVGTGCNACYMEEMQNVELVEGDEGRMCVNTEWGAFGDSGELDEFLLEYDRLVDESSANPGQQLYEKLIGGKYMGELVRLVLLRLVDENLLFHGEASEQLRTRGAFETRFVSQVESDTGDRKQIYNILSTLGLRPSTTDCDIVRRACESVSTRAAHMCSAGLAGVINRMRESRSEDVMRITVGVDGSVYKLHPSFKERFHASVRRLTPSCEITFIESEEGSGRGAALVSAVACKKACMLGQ
Briefly: Enzymatic glucokinase activity assay (KinaseGlo luminescence, ATP consumption). It counts as biochemical. The following applies: 5 μM ATP, 5 mM Glucose; for EC50: GK activation, Kact = concentration giving 50% of the maximal increase in GK activity, read-out: pKact; for Emax: calculated maximal gain in GK enzyme activity at a saturating concentration of the compound, read-out: % ACTmax. In short, it runs like this: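 Activation measured as ATP consumption: residual ATP detected by KinaseGlo luminescence after 60 min at room temperature with 5 μM ATP and 5 mM glucose (Hepes pH 7.2, MgCl2, Brij35, DTT, 2% DMSO). Enzyme was recombinant FLAG-tagged protein from E. coli. Eleven-point twofold series were fitted nonlinearly for pKact and % ACTmax.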

Bounds are passed on as bounds.

Take `O=C(Nc1nccs1)[C@H](CC1CCCCC1)N1CCN(C(=S)NCCCN2CCOCC2)CC1=O` [Example 118, (S)-3-cyclohexyl-2-(4-(3-morpholinopropylcarbamothioyl)-2-oxopiperazin-1-yl)-N-(thiazol-2-yl)propanamide]: the EC50 fell in the range of 1.58 to 2.51 µM and the Emax is 97.1 to 107%.

For the molecule `Cc1cccc(S(=O)(=O)N2CCN([C@@H](CC3CCCCC3)C(=O)Nc3nccs3)C(=O)C2)c1` [Example 192, (S)-3-cyclohexyl-2-(2-oxo-4-(m-tolylsulfonyl)piperazin-1-yl)-N-(thiazol-2-yl)propanamide], the EC50 was ≤ 0.631 µM and the Emax was ≥ 119%.

Take `O=C(Nc1nccs1)[C@H](CC1CCCCC1)N1CCN(S(=O)(=O)c2cc(Cl)ccc2Cl)CC1=O` [Example 56, (S)-3-cyclohexyl-2-(4-(2,5-dichlorophenylsulfonyl)-2-oxopiperazin-1-yl)-N-(thiazol-2-yl)propanamide]: the EC50 lay in the range of 0.794 to 1.26 µM and the Emax was 108 to 119%.

For `O=C(Nc1ncc(F)s1)[C@H](CC1CCOCC1)N1CCN(S(=O)(=O)c2cccc(F)c2)CC1=O` [Example 152, (S)-2-(4-(3-fluorophenylsulfonyl)-2-oxopiperazin-1-yl)-N-(5-fluorothiazol-2-yl)-3-(tetrahydro-2H-pyran-4-yl)propanamide], the EC50 is ≤ 0.631 µM and the Emax was ≥ 119%.

With `O=C(Nc1nccs1)[C@H](CC1CCCCC1)N1CCN(S(=O)(=O)c2ccc(Oc3ccccn3)cc2)CC1=O` [Example 207, (S)-3-cyclohexyl-2-(2-oxo-4-(4-(pyridin-2-yloxy)phenylsulfonyl)piperazin-1-yl)-N-(thiazol-2-yl)propanamide], the EC50 was ≤ 0.631 µM and the Emax was 74.1 to 97%.

In the case of `CC(=O)c1cccc(S(=O)(=O)N2CCN([C@@H](CC3CCCCC3)C(=O)Nc3nccs3)C(=O)C2)c1` [Example 196, (S)-2-(4-(3-acetylphenylsulfonyl)-2-oxopiperazin-1-yl)-3-cyclohexyl-N-(thiazol-2-yl)propanamide], the EC50 was 1.58 to 2.51 µM and the Emax is 97.1 to 107%.

In the case of `O=C(Nc1nccs1)[C@H](CC1CCCCC1)N1CCN(S(=O)(=O)c2ccc(C(F)(F)F)cc2)CC1=O` [Example 55, (S)-3-cyclohexyl-2-(2-oxo-4-(4-(trifluoromethyl)phenylsulfonyl)piperazin-1-yl)N-(thiazol-2-yl)propanamide], the EC50 was in the range of 0.794 to 1.26 µM and the Emax was ≤ 74%.

`O=C(Nc1nccs1)[C@H](CC1CCCCC1)N1CCN(S(=O)(=O)c2ccc3ncsc3c2)CC1=O` [Example 97, (S)-2-(4-(benzo[d]thiazol-6-ylsulfonyl)-2-oxopiperazin-1-yl)-3-cyclohexyl-N-(thiazol-2-yl)propanamide]: the EC50 is 0.794 to 1.26 µM and the Emax is 97.1 to 107%.

For the molecule `O=C(Nc1nccs1)[C@H](CC1CCCCC1)N1CCN(S(=O)(=O)CCc2ccc(Cl)cc2)CC1=O` [Example 98, (S)-2-(4-(4-chlorophenethylsulfonyl)-2-oxopiperazin-1-yl)-3-cyclohexyl-N-(thiazol-2-yl)propanamide], the EC50 fell in the range of 0.794 to 1.26 µM and the Emax was ≤ 74%.

Take `CS(=O)(=O)N1CCN([C@@H](CC2CCCCC2)C(=O)Nc2nccs2)C(=O)C1` [Example 1, (S)-3-cyclohexyl-2-(4-(methylsulfonyl)-2-oxopiperazin-1-yl)-N-(thiazol-2-yl)propanamide]: the EC50 lay in the range of 1.58 to 2.51 µM and the Emax is 74.1 to 97%.

In the case of `O=C(Nc1ncc(Cl)s1)[C@H](CC1CCOCC1)N1CCN(S(=O)(=O)C2CC2)CC1=O` [Example 24, (S)-N-(5-chlorothiazol-2-yl)-2-(4-(cyclopropylsulfonyl)-2-oxopiperazin-1-yl)-3-(tetrahydro-2H-pyran-4-yl)propanamide], the EC50 is 0.794 to 1.26 µM and the Emax was ≥ 119%.

As to `O=C(Nc1nccs1)[C@H](CC1CCCCC1)N1CCN(S(=O)(=O)c2ccc(Cl)s2)CC1=O` [Example 172, (S)-2-(4-(5-chlorothiophen-2-ylsulfonyl)-2-oxopiperazin-1-yl)-3-cyclohexyl-N-(thiazol-2-yl)propanamide], the EC50 is ≤ 0.631 µM and the Emax was 97.1 to 107%.

Consider `O=C(Nc1nccs1)[C@H](CC1CCCCC1)N1CCN(C(=S)Nc2ccc(Oc3ccccc3)cc2)CC1=O` [Example 127, (S)-3-cyclohexyl-2-(2-oxo-4-(4-phenoxyphenylcarbamothioyl)piperazin-1-yl)-N-(thiazol-2-yl)propanamide], for which the EC50 fell in the range of 1.58 to 2.51 µM and the Emax was ≤ 74%.

For `O=C(Nc1ncc(Cl)s1)C(CC1CCOCC1)N1CCN(S(=O)(=O)c2cccs2)CC1=O` (centres unmarked) [Example 36, N-(5-chlorothiazol-2-yl)-2-(2-oxo-4-(thiophen-2-ylsulfonyl)piperazin-1-yl)-3-(tetrahydro-2H-pyran-4-yl)propanamide], the EC50 is ≤ 0.631 µM and the Emax is 108 to 119%.

Take `COc1ccc(C)cc1S(=O)(=O)N1CCN([C@@H](CC2CCCCC2)C(=O)Nc2nccs2)C(=O)C1` [Example 95, (S)-3-cyclohexyl-2-(4-(2-methoxy-5-methylphenylsulfonyl)-2-oxopiperazin-1-yl)-N-(thiazol-2-yl)propanamide]: the EC50 was in the range of 0.794 to 1.26 µM and the Emax is ≥ 119%.

Take `O=C(Nc1nccs1)[C@H](CC1CCCCC1)N1CCN(S(=O)(=O)Cc2ccc(Cl)c(Cl)c2)CC1=O` [Example 211, (S)-3-cyclohexyl-2-(4-(3,4-dichlorobenzylsulfonyl)-2-oxopiperazin-1-yl)-N-(thiazol-2-yl)propanamide]: the EC50 was 1.58 to 2.51 µM and the Emax is ≤ 74%.

For the molecule `O=C(Nc1nccs1)[C@H](CC1CCCCC1)N1CCN(C(=S)NC2CCCC2)CC1=O` [Example 128, (S)-3-cyclohexyl-2-(4-(cyclopentylcarbamothioyl)-2-oxopiperazin-1-yl)-N-(thiazol-2-yl)propanamide], the EC50 is 0.794 to 1.26 µM and the Emax is 97.1 to 107%.

In the case of `O=C(Nc1nccs1)[C@H](CC1CCCCC1)N1CCN(C(=S)Nc2ccccc2OC(F)(F)F)CC1=O` [Example 136, (S)-3-cyclohexyl-2-(2-oxo-4-(2-(trifluoromethoxy)phenylcarbamothioyl)piperazin-1-yl)-N-(thiazol-2-yl)propanamide], the EC50 lay in the range of 0.794 to 1.26 µM and the Emax was ≥ 119%.

Regarding `O=C(Nc1nccs1)[C@H](CC1CCCCC1)N1CCN(C(=S)Nc2ccc(F)cc2)CC1=O` [Example 83, (S)-3-cyclohexyl-2-(4-(4-fluorophenylcarbamothioyl)-2-oxopiperazin-1-yl)N-(thiazol-2-yl)propanamide], the EC50 is ≥ 3.16 µM and the Emax was 108 to 119%.

For the molecule `O=C(Nc1nccs1)[C@H](CC1CCCCC1)N1CCN(S(=O)(=O)c2ccc(Oc3ccccc3)nc2)CC1=O` [Example 209, (S)-3-cyclohexyl-2-(2-oxo-4-(6-phenoxypyridin-3-ylsulfonyl)piperazin-1-yl)-N-(thiazol-2-yl)propanamide], the EC50 fell in the range of 1.58 to 2.51 µM and the Emax was ≤ 74%.

Turning to `COc1ccc(S(=O)(=O)N2CCN([C@@H](CC3CCCCC3)C(=O)Nc3nccs3)C(=O)C2)cc1F` [Example 99, (S)-3-cyclohexyl-2-(4-(3-fluoro-4-methoxyphenylsulfonyl)-2-oxopiperazin-1-yl)-N-(thiazol-2-yl)propanamide], the EC50 is 0.794 to 1.26 µM and the Emax was 108 to 119%.

`O=C(Nc1nccs1)[C@H](CC1CCCCC1)N1CCN(S(=O)(=O)c2cc(F)c(Cl)cc2F)CC1=O` [Example 190, (S)-2-(4-(4-chloro-2,5-difluorophenylsulfonyl)-2-oxopiperazin-1-yl)-3-cyclohexyl-N-(thiazol-2-yl)propanamide]: the EC50 lay within 0.794 to 1.26 µM and the Emax was 74.1 to 97%.

With `O=C(Nc1nccs1)[C@H](CC1CCCCC1)N1CCN(C(=S)NCCN2CCCCC2)CC1=O` [Example 121, (S)-3-cyclohexyl-2-(2-oxo-4-(2-(piperidin-1-yl)ethylcarbamothioyl)piperazin-1-yl)-N-(thiazol-2-yl)propanamide], the EC50 was ≤ 0.631 µM and the Emax was 97.1 to 107%.

On to `O=C(Nc1ncc(Cl)s1)[C@H](CC1CCOCC1)N1CCN(S(=O)(=O)c2cccc(F)c2)CC1=O` [Example 150, (S)-N-(5-chlorothiazol-2-yl)-2-(4-(3-fluorophenylsulfonyl)-2-oxopiperazin-1-yl)-3-(tetrahydro-2H-pyran-4-yl)propanamide], for which the EC50 is ≤ 0.631 µM and the Emax is 108 to 119%.

Turning to `O=C(Nc1nccs1)[C@H](CC1CCCCC1)N1CCN(S(=O)(=O)Cc2cccc(C(F)(F)F)c2)CC1=O` [Example 213, (S)-3-cyclohexyl-2-(2-oxo-4-(3-(trifluoromethyl)benzylsulfonyl)piperazin-1-yl)-N-(thiazol-2-yl)propanamide], the EC50 lay within 1.58 to 2.51 µM and the Emax was 74.1 to 97%.
